Data reported in paper PMC2674329 (The Journal of steroid biochemistry and molecular biology, 2008).
Like-named read-outs stand apart in the source and are kept apart here. One block for each compound: values may come before it.

How the values were obtained:
Type in all cases: biochemical
[1] = biological target: T1, human placental cytosolic COMT (Homo sapiens, UniProt P21964); conditions: for Km: read-out: KM of the substrate for O-methylation
T1 sequence (P21964 1-221 isoform P21964-2): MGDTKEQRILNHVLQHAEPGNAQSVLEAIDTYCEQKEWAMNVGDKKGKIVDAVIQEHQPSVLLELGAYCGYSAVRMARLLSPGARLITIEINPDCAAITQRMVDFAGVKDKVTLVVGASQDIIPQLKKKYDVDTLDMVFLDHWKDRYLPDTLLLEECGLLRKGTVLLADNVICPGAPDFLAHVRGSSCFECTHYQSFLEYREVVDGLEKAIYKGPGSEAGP

[2] = biological target: T2, human liver cytosolic COMT (Homo sapiens, UniProt P21964)
T2 sequence (P21964 1-221 isoform P21964-2): T1 sequence (P21964 1-221 isoform P21964-2)

[3] = biological target: T3, human liver and placental cytosolic COMT (Homo sapiens, UniProt P21964)
T3 sequence (P21964 1-221 isoform P21964-2): T1 sequence (P21964 1-221 isoform P21964-2)

[4] = range over liver and placental samples (summary)

SMILES: C[C@]12CC[C@@H]3c4cc(O)c(O)cc4CC[C@H]3[C@@H]1CC[C@@H]2O [2-OH-E2, 2-hydroxyestradiol, reference compound]
- VMAX of the substrate for O-methylation ([1]; HP17C (no inhibitor)): 2274 pmol/mg protein/min
- VMAX of the substrate for O-methylation ([1]; HP18C (no inhibitor)): 4815 pmol/mg protein/min
- VMAX of the substrate for O-methylation ([1]; HP20C (no inhibitor)): 1650 pmol/mg protein/min
- Km ([1]; HP17C (no inhibitor)): 1.3 µM
- Km ([1]; HP18C (no inhibitor)): 1 µM
- Km ([1]; HP20C (no inhibitor)): 0.7 µM

- VMAX, 4-OH-E2 as substrate, in presence of inhibitor ([1]; HP17C + 2 μM inhibitor, no inhibitor: 1827): 531 pmol/mg protein/min
- VMAX, 4-OH-E2 as substrate, in presence of inhibitor ([1]; HP17C + 0.5 inhibitor (unit of concentration not given), no inhibitor: 1827): 1572 pmol/mg protein/min
- VMAX, 2-OH-E2 as substrate, in presence of inhibitor ([1]; HP17C + 0.5 inhibitor (unit of concentration not given), no inhibitor: 2274): 2078 pmol/mg protein/min
SMILES: O=C(O)/C=C/c1ccc(O)c(O)c1 [Caffeic acid, caffeic acid]

SMILES: O=C(/C=C/c1ccc(O)c(O)c1)O[C@@H]1C[C@](O)(C(=O)O)C[C@@H](O)[C@H]1O [Chlorogenic acid, chlorogenic acid]
- VMAX, 4-OH-E2 as substrate, in presence of inhibitor ([2]; HL1C + 1 μM inhibitor, no inhibitor: 6408): 2825 pmol/mg protein/min
- VMAX, 4-OH-E2 as substrate, in presence of inhibitor ([2]; HL6C + 2 μM inhibitor, no inhibitor: 6310): 3292 pmol/mg protein/min
- change of apparent KM value, O-methylation of 4-OH-E2 ([2]; inhibitor at 1 μM): slightly increased
- decrease of apparent VMAX value, O-methylation of 4-OH-E2 ([2]; inhibitor at 1 μM): approximately 50%
- mechanism of enzyme inhibition, O-methylation of 4-OH-E2 ([2]; inhibitor at 1 μM): primarily a noncompetitive mechanism
- VMAX, 4-OH-E2 as substrate, in presence of inhibitor ([1]; HP18C + 0.25 μM inhibitor, no inhibitor: 1918): 1480 pmol/mg protein/min
- VMAX, 2-OH-E2 as substrate, in presence of inhibitor ([1]; HP18C + 0.25 μM inhibitor, no inhibitor: 4815): 3960 pmol/mg protein/min
- VMAX, 4-OH-E2 as substrate, in presence of inhibitor ([1]; HP18C + 0.5 μM inhibitor, no inhibitor: 1918): 1146 pmol/mg protein/min
- VMAX, 2-OH-E2 as substrate, in presence of inhibitor ([1]; HP18C + 0.5 μM inhibitor, no inhibitor: 4815): 3648 pmol/mg protein/min
- VMAX, 4-OH-E2 as substrate, in presence of inhibitor ([1]; HP20C + 0.5 μM inhibitor, no inhibitor: 759): 312 pmol/mg protein/min
- VMAX, 2-OH-E2 as substrate, in presence of inhibitor ([1]; HP20C + 0.5 μM inhibitor, no inhibitor: 1650): 1311 pmol/mg protein/min
- increase of KM value, 2-OH-E2 as a substrate ([1]; inhibitor at 0.25 μM): approximately 2 fold
- increase of KM value, 4-OH-E2 as a substrate ([1]; inhibitor at 0.25 μM): approximately 1.2 fold
- increase of KM value, 2-OH-E2 as a substrate ([1]; inhibitor at 0.5 μM): ~4 fold
- increase of KM value, 4-OH-E2 as a substrate ([1]; inhibitor at 0.5 μM): approximately 2 fold
- decrease of VMAX value, 2-OH-E2 as a substrate ([1]; inhibitor at 0.25 and 0.5 μM): approximately 20%
- decrease of VMAX value, 4-OH-E2 as a substrate ([1]; inhibitor at 0.25 and 0.5 μM): approximately 50%
- mechanism of enzyme inhibition, O-methylation of 2-OH-E2 and 4-OH-E2 ([1]; section on human placental cytosolic COMT (sentence prints human liver COMT)): mixed (competitive plus noncompetitive)
- mechanism of inhibition, O-methylation of 2-OH-E2 and 4-OH-E2 ([3]; human liver and placental COMT): mixed (competitive plus noncompetitive)
- higher inhibition potency for the O-methylation of 4-OH-E2 than for the O-methylation of 2-OH-E2 ([3]; human liver or placental cytosolic COMT): 1.5 to 7 fold
- IC50 values for inhibiting the methylation of 2-OH-E2 [3, 4]: 800 to 1400 nM
- IC50 values for inhibiting the methylation of 4-OH-E2 [3, 4]: 200 to 800 nM

SMILES: C[C@]12CC[C@@H]3c4ccc(O)c(O)c4CC[C@H]3[C@@H]1CC[C@@H]2O [4-OH-E2, 4-hydroxyestradiol, reference compound]
- VMAX of the substrate for O-methylation ([2]; HL1C (no inhibitor), experiment with 1 μM chlorogenic acid): 6408 pmol/mg protein/min
- VMAX of the substrate for O-methylation ([2]; HL1C (no inhibitor), experiment with 2 μM caffeic acid): 6401 pmol/mg protein/min
- VMAX of the substrate for O-methylation ([2]; HL6C (no inhibitor)): 6310 pmol/mg protein/min
- Km ([2]; read-out: KM of the substrate for O-methylation, HL6C (no inhibitor)): 7.1 µM
- VMAX of the substrate for O-methylation ([1]; HP17C (no inhibitor)): 1827 pmol/mg protein/min
- VMAX of the substrate for O-methylation ([1]; HP18C (no inhibitor)): 1918 pmol/mg protein/min
- VMAX of the substrate for O-methylation ([1]; HP20C (no inhibitor)): 759 pmol/mg protein/min
- Km ([1]; HP17C (no inhibitor)): 3.2 µM
- Km ([1]; HP18C (no inhibitor)): 4.2 µM
- Km ([1]; HP20C (no inhibitor)): 3.5 µM
